Results reported in patent US20100298141A1, “SUBSTITUTED PYRIDINE N-OXIDE HERBICIDES” (E. I. DU PONT DE NEMOURS AND COMPANY, priority 2007, published 2010).

How the values were obtained:
[1] = test system: winter wheat (TRZAW); assay: Test H preemergence mixtures of compound 2 with crop safeners; assay type: in vivo, Triticum aestivum; design: key to TRZAW Obsd. (observed effect): observed % effect, visually evaluated vs controls; details: for TRZAW Obsd. (observed effect): Test H, alone; for Plant response rating TRZAW Obsd.: scale 0 to 100
Description: (§1) Seeds of test plants consisting of winter wheat (TRZAW, Triticum aestivum), corn (ZEAMD, Zea mays cv. ‘Pioneer 33G26’), giant foxtail (SETFA, Setaria faberi), and Italian ryegrass (LOLMU, Lolium multiflorum) were planted into a blend of loam soil and sand and treated preemergence with a directed soil spray using test chemicals formulated in a non-phytotoxic solvent mixture that included a surfactant. Seeds of small-seeded species were planted about 1 cm deep; larger seeds were planted about 2.5 cm deep. […] Balanced fertilizer was applied through the watering system. Treatments consisted of Compound 2 and the above mentioned safeners alone and in combination using a spray volume of 457 L/ha. Each treatment was replicated four times. Treated plants and controls were maintained in a greenhouse for 14 to 21 days, after which time all species were compared to controls and visually evaluated. […] A dash (-) response means no test result. Colby's Equation was used to determine the herbicidal effects expected from the mixtures. Colby's Equation (Colby, S. […] wherein • Pa+b is the percentage effect of the mixture expected from additive contribution of the individual components, • Pa is the observed percentage effect of the first active ingredient at the same use rate as in the mixture, and • Pb is the observed percentage effect of the second active ingredient at the same use rate as in the mixture.

[2] = test system: corn (ZEAMD); assay: as above; assay type: in vivo, Zea mays cv. ‘Pioneer 33G26’; design: key to ZEAMD Obsd. (observed effect): observed % effect, visually evaluated vs controls; details: for ZEAMD Obsd. (observed effect): Test H, alone; for Plant response rating ZEAMD Obsd.: scale 0 to 100
Description: as §1

[3] = test system: giant foxtail (SETFA); assay: as above; assay type: in vivo, Setaria faberi; design: key to SETFA Obsd. (observed effect): observed % effect, visually evaluated vs controls; details: for SETFA Obsd. (observed effect): Test H, alone; for Plant response rating SETFA Obsd.: scale 0 to 100
Description: as §1

[4] = test system: Italian ryegrass (LOLMU); assay: as above; assay type: in vivo, Lolium multiflorum; design: key to LOLMU Obsd. (observed effect): observed % effect, visually evaluated vs controls; details: for LOLMU Obsd. (observed effect): Test H, alone; for Plant response rating LOLMU Obsd.: scale 0 to 100
Description: as §1

[5] = test system: winter wheat (TRZAW); assay: Test I preemergence mixtures of compound 2 with crop safeners; assay type: in vivo, Triticum aestivum; details: alone
Description: (§2) Seeds of test plants consisting of winter wheat (TRZAW, Triticum aestivum), corn (ZEAMD, Zea mays cv. ‘Pioneer 33G26’), wild oat (AVEFA, Avena fatua), and Italian ryegrass (LOLMU, Lolium multiflorum) were planted into a blend of loam soil and sand and treated preemergence with a directed soil spray using test chemicals formulated in a non-phytotoxic solvent mixture that included a surfactant. Seeds of small-seeded species were planted about 1 cm deep; larger seeds were planted about 2.5 cm deep. […] Balanced fertilizer was applied through the watering system. Treatments consisted of Compound 2 and the above mentioned safeners alone and in combination using a spray volume of 457 L/ha. Each treatment was replicated four times. Treated plants and controls were maintained in a greenhouse for 14 to 21 days, after which time all species were compared to controls and visually evaluated. […] A dash (-) response means no test result. Colby's Equation was used to determine the herbicidal effects expected from the mixtures. Colby's Equation (Colby, S. […] Pa+b=Pa+Pb−(PaPb/100) wherein • Pa+b is the percentage effect of the mixture expected from additive contribution of the individual components, • Pa is the observed percentage effect of the first active ingredient at the same use rate as in the mixture, and • Pb is the observed percentage effect of the second active ingredient at the same use rate as in the mixture.

[6] = test system: corn (ZEAMD); assay: as above; assay type: in vivo, Zea mays cv. ‘Pioneer 33G26’; details: alone
Description: as §2

[7] = test system: wild oat (AVEFA); assay: as above; assay type: in vivo, Avena fatua; details: alone
Description: as §2

[8] = test system: Italian ryegrass (LOLMU); assay: as above; assay type: in vivo, Lolium multiflorum; details: alone
Description: as §2

[9] = test system: winter wheat (TRZAW); assay: Test J preemergence mixtures of Compound 2 with crop safeners; assay type: in vivo, Triticum aestivum; design: key to TRZAW Obsd. (observed effect): observed % herbicidal effect; details: for TRZAW Obsd. (observed effect): Test J, alone
Description: as §1, with “aestivum) and” for “aestivum),”, “33G26’)” for “33G26’), giant foxtail (SETFA, Setaria faberi), and Italian ryegrass (LOLMU, Lolium multiflorum)”, “surfactant.” for “surfactant. Seeds of small-seeded species were planted about 1 cm deep; larger seeds were planted about 2.5 cm deep.”, “times.” for “times. Treated plants and controls were maintained in a greenhouse for 14 to 21 days, after which time all species were compared to controls and visually evaluated.”, “and” for “and •”

[10] = test system: corn (ZEAMD); assay: as above; assay type: in vivo, Zea mays cv. ‘Pioneer 33G26’; design: key to ZEAMD Obsd. (observed effect): observed % herbicidal effect; details: for ZEAMD Obsd. (observed effect): Test J, alone
Description: as §1, with “aestivum) and” for “aestivum),”, “33G26’)” for “33G26’), giant foxtail (SETFA, Setaria faberi), and Italian ryegrass (LOLMU, Lolium multiflorum)”, “surfactant.” for “surfactant. Seeds of small-seeded species were planted about 1 cm deep; larger seeds were planted about 2.5 cm deep.”, “times.” for “times. Treated plants and controls were maintained in a greenhouse for 14 to 21 days, after which time all species were compared to controls and visually evaluated.”, “and” for “and •”

[11] = cloquintocet-mexyl alone 8 g a.i./ha
[12] = cloquintocet-mexyl alone 16 g a.i./ha
[13] = cloquintocet-mexyl alone 31 g a.i./ha

Structure (SMILES)	TRZAW Obsd. (observed effect) ([1]; 8 g a.i./ha)	TRZAW Obsd. (observed effect) ([1]; 16 g a.i./ha)	TRZAW Obsd. (observed effect) ([1]; 31 g a.i./ha)	ZEAMD Obsd. (observed effect) ([2]; 8 g a.i./ha)	ZEAMD Obsd. (observed effect) ([2]; 16 g a.i./ha)	ZEAMD Obsd. (observed effect) ([2]; 31 g a.i./ha)	SETFA Obsd. (observed effect) ([3]; 8 g a.i./ha)	SETFA Obsd. (observed effect) ([3]; 16 g a.i./ha)	SETFA Obsd. (observed effect) ([3]; 31 g a.i./ha)	LOLMU Obsd. (observed effect) ([4]; 8 g a.i./ha)	LOLMU Obsd. (observed effect) ([4]; 16 g a.i./ha)	LOLMU Obsd. (observed effect) ([4]; 31 g a.i./ha)	TRZAW Obsd. (observed effect) ([5]; 4 g a.i./ha)	TRZAW Obsd. (observed effect) ([5]; 8 g a.i./ha)	ZEAMD Obsd. (observed effect) ([6]; 4 g a.i./ha)	ZEAMD Obsd. (observed effect) ([6]; 8 g a.i./ha)	AVEFA Obsd. (observed effect) ([7]; 4 g a.i./ha)	AVEFA Obsd. (observed effect) ([7]; 8 g a.i./ha)	LOLMU Obsd. (observed effect) ([8]; 4 g a.i./ha)	LOLMU Obsd. (observed effect) ([8]; 8 g a.i./ha)	also measured
CC1COc2ccccc2N1C(=O)C(Cl)Cl (stereo not shown) [benoxacor]	0	0	0	0	0	0	0	3	0	0	0	0	0	0	0	0	0	0	0	0	TRZAW Obsd. (observed effect) ([9]; 8 g a.i./ha): 0; TRZAW Obsd. (observed effect) ([9]; 31 g a.i./ha): 0; TRZAW Obsd. (observed effect) ([9]; 125 g a.i./ha): 0; TRZAW Obsd. (observed effect) ([9]; 500 g a.i./ha): 0; ZEAMD Obsd. (observed effect) ([10]; 8 g a.i./ha): 0; ZEAMD Obsd. (observed effect) ([10]; 31 g a.i./ha): 0; ZEAMD Obsd. (observed effect) ([10]; 125 g a.i./ha): 0; ZEAMD Obsd. (observed effect) ([10]; 500 g a.i./ha): 0
C=CCN(CC=C)C(=O)C(Cl)Cl [dichlormid]	0	0	0	0	0	0	0	0	3	0	0	0	0	0	0	0	0	0	0	0	Observed effect (Obsd.), TRZAW ([9]; safener alone at 8 g a.i./ha): 0%; Observed effect (Obsd.), TRZAW ([9]; safener alone at 31 g a.i./ha): 0%; Observed effect (Obsd.), ZEAMD ([10]; safener alone at 8 g a.i./ha): 0%; Observed effect (Obsd.), ZEAMD ([10]; safener alone at 31 g a.i./ha): 0%; Observed effect (Obsd.), ZEAMD ([10]; safener alone at 500 g a.i./ha): 0%
CCCCCC(C)OC(=O)COc1ccc(Cl)c2cccnc12 (stereo not shown) [cloquintocet-mexyl]													0	0	0	0	0	0	0	0	Plant response rating TRZAW Obsd. [1, 11]: 0; Plant response rating TRZAW Obsd. [1, 12]: 0; Plant response rating TRZAW Obsd. [1, 13]: 0; Plant response rating ZEAMD Obsd. [2, 11]: 0; Plant response rating ZEAMD Obsd. [2, 12]: 0; Plant response rating ZEAMD Obsd. [2, 13]: 0; Plant response rating SETFA Obsd. [3, 11]: 5; Plant response rating SETFA Obsd. [3, 12]: 3; Plant response rating SETFA Obsd. [3, 13]: 8; Plant response rating LOLMU Obsd. [4, 11]: 0; Plant response rating LOLMU Obsd. [4, 12]: 8; Plant response rating LOLMU Obsd. [4, 13]: 0
